Assays:
hSTING-wt = hSTING-wt (Homo sapiens, UniProt Q86WV6); test: Cellular Functional Assay I: ISRE-SEAP reporter in HEK-293T-Dual Null cells transfected with hSTING-wt; type: cell-based
hSTING-H232 = hSTING-H232 (Homo sapiens, UniProt Q86WV6); test: Cellular Functional Assay I: ISRE-SEAP reporter in HEK-293T-Dual Null cells transfected with hSTING-H232; type: cell-based
hSTING-HAQ = hSTING-HAQ (Homo sapiens, UniProt Q86WV6, G230A/H232R/R293Q/R71H); test: Cellular Functional Assay I: ISRE-SEAP reporter in HEK-293T-Dual Null cells transfected with hSTING-HAQ; type: cell-based
Chain of hSTING-HAQ (Q86WV6 whole entry R71H/G230A/H232R/R293Q): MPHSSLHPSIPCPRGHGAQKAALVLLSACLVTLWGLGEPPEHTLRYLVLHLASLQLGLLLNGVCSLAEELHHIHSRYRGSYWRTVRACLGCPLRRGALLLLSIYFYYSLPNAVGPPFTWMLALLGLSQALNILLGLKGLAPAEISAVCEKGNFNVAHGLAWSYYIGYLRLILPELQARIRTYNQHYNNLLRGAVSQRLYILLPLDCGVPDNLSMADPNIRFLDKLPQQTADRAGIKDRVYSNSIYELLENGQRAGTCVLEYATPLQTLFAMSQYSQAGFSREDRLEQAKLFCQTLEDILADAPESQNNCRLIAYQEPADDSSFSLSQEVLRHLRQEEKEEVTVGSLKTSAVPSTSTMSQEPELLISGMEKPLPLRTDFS

hSTING-AQ = biological target: T1, hSTING-AQ (Homo sapiens, UniProt Q86WV6, G230A/R293Q); test: Cellular Functional Assay I: ISRE-SEAP reporter, hSTING-AQ allele; type: cell-based
T1 construct: expressed in transfected cells
T1 sequence (Q86WV6 whole entry G230A/H232R/R293Q): as the sequence (Q86WV6 whole entry R71H/G230A/H232R/R293Q) above, with H71R counted along it

hSTING-Q = biological target: T2, hSTING-Q (Homo sapiens, UniProt Q86WV6, R293Q); test: Cellular Functional Assay I: ISRE-SEAP reporter, hSTING-Q allele; type: cell-based
T2 construct: expressed in transfected cells
T2 sequence (Q86WV6 whole entry R293Q): as the sequence (Q86WV6 whole entry R71H/G230A/H232R/R293Q) above, with H71R, A230G, R232H counted along it

mSTING-wt = biological target: T3, mSTING-wt (Mus musculus, UniProt Q3TBT3); test: Cellular Functional Assay I: ISRE-SEAP reporter in HEK-293T-Dual Null cells transfected with mouse STING; type: cell-based; details: SEAP reporter
T3 sequence (Q3TBT3 1-378): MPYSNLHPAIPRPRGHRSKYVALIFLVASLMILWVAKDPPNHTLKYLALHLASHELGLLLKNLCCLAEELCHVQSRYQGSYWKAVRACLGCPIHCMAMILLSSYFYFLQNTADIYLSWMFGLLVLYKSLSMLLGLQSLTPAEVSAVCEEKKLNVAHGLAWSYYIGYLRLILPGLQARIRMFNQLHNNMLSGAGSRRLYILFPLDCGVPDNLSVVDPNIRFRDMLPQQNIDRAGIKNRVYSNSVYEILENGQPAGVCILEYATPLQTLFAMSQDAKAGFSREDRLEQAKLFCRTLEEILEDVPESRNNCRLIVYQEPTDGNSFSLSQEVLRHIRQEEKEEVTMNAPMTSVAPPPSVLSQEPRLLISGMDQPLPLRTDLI

[1] = tested on: human dendritic cells (h-DCs); test: Cellular Functional Assay II: secreted IFN-β from human dendritic cells; type: cell-based; details: h-DC
Method: (§1) Activation of STING in primary cells was determined by measuring levels of secreted IFN-β from human monocyte-derived macrophages (h-MDMs)/dendritic cells (h-DCs) and/or mouse dendritic cells (m-DCs) after treatment with A.
(§2) Human CD14+ cells were first isolated from human peripheral blood mononuclear cells (PBMCs) with Stemcell Easysep Monocyte Isolation™ kit. Human CD14+ cells were kept in conditioned media for 7-12 days to generate h-MDMs and h-DCs before use. After harvesting from C57BL/6 mouse femurs, bone marrow cells were culture in conditioned media for 7 days to generate m-DCs before use.
(§3) The Culture conditions for the various types of cells whereas noted in Table 2:
(§4) 0.5×10^6 cells in 50 ul buffer (50 mM HEPES, pH7.0; 100 mM KCl; 3 mM MgCl2, 0.1 mM DTT; 85 mM Sucrose; 0.2% BSA, 1 mM ATP) in 96-well round bottom plate. Compound (formulated in DMSO) or DMSO (control) were added into each well and the plate incubate at 37° C. for 30 minutes. Cells were washed twice with 100 uL of fresh media and incubated at 37° C. for an additional 6 hours. After 6 hour of incubation, the supernatant was collected and a Cytometry Bead Assay™ (CBA, BioLegend) was used to measure […] levels.

[2] = tested on: mouse dendritic cells (m-DCs); test: Cellular Functional Assay II: secreted IFN-β from mouse dendritic cells; type: cell-based; details: m-DC, 10 uM
Method: as §1, §2, §3, §4

[3] = tested on: murine A20 model of B cell lymphoma; test: In vivo syngeneic A20 mouse tumor model; details: Balb/c mice
Method: The in vivo efficacy of exemplary compound I(c) was evaluated in a murine A20 model of B cell lymphoma. A20 cells were maintained in RPMI1640/10% FBS. Approximately 4×10^6 A20 cells were injected subcutaneously in 0.1 mL PBS into the right flanks of immunocompetent female Balb/c mice. Tumors were permitted to grow for six days after initial inoculation before the animals were segregated into treatment group. Study groups were treated with 25 μg of B formulated in an appropriate vehicle. Exemplary compound B was dosed intratumorally at the proximal tumor (right flank) on days 6, 8, and 11 of the study. Only animals in good health were used for dosing. Since the effects of the test article on the animals were not known, animals were closely observed for 1 h following dosing and at each tumor measurement time point over the course of the study. Any adverse reactions to the administration of the test material were noted and tabulated. […] Systemic toxicity of the treatments was evaluated by body weight change. Tumor volume was measured every 2 days using standard caliper measurement techniques.

[4] = A20 tumor, 25 μg intratumorally on days 6, 8 and 11

Chain of hSTING-wt (Q86WV6 whole entry H232R): as the sequence (Q86WV6 whole entry R71H/G230A/H232R/R293Q) above, with H71R, A230G, Q293R counted along it
Chain of hSTING-H232 (Q86WV6 whole entry): as the sequence (Q86WV6 whole entry R71H/G230A/H232R/R293Q) above, with H71R, A230G, R232H, Q293R counted along it

CCn1nc(C)cc1C(=O)Nc1nc2cc(C(N)=O)cnc2n1C/C=C/Cn1c(NC(=O)c2cc(C)nn2CC)nc2cc(C(N)=O)cc(C)c21.Cl.Cl.Cl.Cl [Compound B, 3-[(E)-4-[5-carbamoyl-2-[(2-ethyl-5-methyl-pyrazole-3-carbonyl)amino]-7-methyl-benzimidazol-1-yl]but-2-enyl]-2-[(2-ethyl-5-methyl-pyrazole-3-carbonyl)amino]imidazo[4,5-b]pyridine-6-carboxamide Tetrahydrochloride]
EC50 level, human STING WT (hSTING-wt): pM or nM level
EC50 (hSTING-wt; HEK-293T-Dual Null, hSTING-wt): < 1 nM
EC50 level, human STING REF (also called H232) (hSTING-H232): pM or nM level
EC50 (hSTING-H232; HEK-293T-Dual Null, hSTING-H232): < 1 nM
EC50 level, human STING HAQ (hSTING-HAQ): pM or nM level
EC50 (hSTING-HAQ; HEK-293T-Dual Null, hSTING-HAQ): 1 to 500 nM
EC50 (hSTING-AQ): 1 to 500 nM
EC50 (hSTING-Q): 1 to 500 nM
EC50 level, mouse STING (mSTING-wt): pM or nM level
EC50 (mSTING-wt; HEK-293T-Dual Null, mSTING-wt, read-out: EC50 mSTING-wt): 1 to 500 nM
IFN-β level ([1]; 0.1 uM): >800 pg/mL
IFN-β level ([1]; 1 uM): >1,000 pg/ml
IFN-β level ([1]; 10 uM): >1,000 pg/ml
IFN-β level [2]: >60,000 pg/ml
dose related toxicity as measured by body weight loss ([3]; 25 μg dose group): no dose related toxicity
animals with complete tumor regression [3, 4]: 80%
tumoricidal effect at the injected tumor [3, 4]: significant tumoricidal properties

From patent US20200031825A1, “HETEROAROMATIC-FUSED IMIDAZOLYL AMIDES, COMPOSITIONS AND USES THEREOF AS STING AGONISTS” (Trillium Therapeutics Inc., priority 2018, published 2020)
